The text below walks through data of patent US7470680B2, “Constrained compounds as CGRP-receptor antagonists” (Bristol-Myers Squibb Company, priority 2006, dated 2008).

Assay [1] addresses T1, CGRP receptor (Homo sapiens, UniProt O60894+Q16602). Kind of assay: Cyclic AMP functional antagonism assay in SK-N-MC cells. Type of assay: cell-based. Also noted: SK-N-MC cells that endogenously express the human CGRP receptor; endogenous in cells; host or cells: SK-N-MC cells. The settings on record: Table 2; inhibition of 0.3 nM CGRP-induced cAMP in SK-N-MC cells; read-out: cAMP Function IC50. As to the method: Cyclic AMP Functional Antagonism Assay. Antagonism of the compounds of invention was determined by measuring the formation of cyclic AMP (adenosine 3′5′-cyclic monophosphate) in SK-N-MC cells that endogenously express the human CGRP receptor. CGRP receptor complex is coupled with Gs protein and CGRP binding to this complex leads to the cyclic AMP production via Gs-dependent activation of an adenylate cyclase (Juaneda C. et al., TiPS, 2000; 21:432-438). Consequently, CGRP receptor antagonists inhibit CGRP—induced cyclic AMP formation in SK-N-MC cells (Doods H, et al., Br J Pharmacol, 2000; 129(3):420-423). For cyclic AMP measurements SK—N-MC cells were incubated with 0.3 nM CGRP alone or in the presence of various concentrations of the compounds of invention for 30 min at room temperature. Compounds of invention were pre-incubated with SK—N-MC cells for 15 min before the addition of CGRP to allow receptor occupancy (Edvinsson et al., Eur J Pharmacol, 2001, 415:39-44). Cyclic AMP was extracted using the lysis reagent and its concentration was determined by radioimmunoassay using RPA559 cAMP SPA Direct Screening Assay Kit (Amersham Pharmacia Biotech). IC50 values were calculated using Excel fit.

In assay [2] the target is T1, CGRP receptor. The assay is described as follows: CGRP radioligand binding assay ([125I]-CGRP displacement, SK-N-MC homogenate). More on the design: endogenous in cells; host or cells: SK-N-MC cells (homogenate/membrane pellet). The conditions noted are these: Table 2; displacement of [125I]-CGRP, SK-N-MC membranes. As to the method:
CGRP Binding Assay. Tissue Culture. SK-N-MC cells were grown at 37° C. in 5% CO2 as a monolayer in medium consisting of MEM with Earle's salts and L-glutamine (Gibco) supplemented with 10% fetal bovine serum (Gibco). Cell Pellets. The cells were rinsed twice with phosphate-buffered saline (155 mM NaCl, 3.3 mM Na2HPO4, 1.1 mM KH2PO4, pH 7.4), and incubated for 5-10 min. at 4° C. in hypotonic lysis buffer consisting of 10 mM Tris (pH 7.4) and 5 mM EDTA. The cells were transferred from plates to polypropylene tubes (16×100 mm) and homogenized using a polytron. Homogenates were centrifuged at 32,000×g for 30 min. The pellets were resuspended in cold hypotonic lysis buffer with 0.1% mammalian protease inhibitor cocktail (Sigma) and assayed for protein concentration. The SK-N-MC homogenate was then aliquoted and stored at −80° C. until needed.
Radioligand Binding Assay. The compounds of invention were solubilized and carried through serial dilutions using 100% DMSO. Aliquots from the compound serial dilutions were further diluted 25 fold into assay buffer (50 mM Tris-Cl pH 7.5, 5 mM MgCl2, 0.005% Triton X-100) and transferred (volume 50 μl) into 96 well assay plates. [^125I]-CGRP (Amersham Biosciences) was diluted to 60 pM in assay buffer and a volume of […] was added to each well. SK-N-MC pellets were thawed, diluted in assay buffer with fresh 0.1% mammalian protease inhibitor cocktail (Sigma), and homogenized again. SK-N-MC homogenate (5 μg/well) was added in a volume of 100 μl. The assay plates were then incubated at room temperature for 2 h. Assays were stopped by addition of excess cold wash buffer (20 mM Tris-Cl pH 7.5, 0.1% BSA) immediately followed by filtration over glass fiber filters (Whatman GF/B) previously soaked in 0.5% PEI. Non-specific binding was defined with 1 μM beta-CGRP. Protein bound radioactivity was determined using a gamma or scintillation counter. The IC50 was defined as the concentration of a compound of invention required to displace 50% of radioligand binding.

T1 sequence (Q16602 23-461): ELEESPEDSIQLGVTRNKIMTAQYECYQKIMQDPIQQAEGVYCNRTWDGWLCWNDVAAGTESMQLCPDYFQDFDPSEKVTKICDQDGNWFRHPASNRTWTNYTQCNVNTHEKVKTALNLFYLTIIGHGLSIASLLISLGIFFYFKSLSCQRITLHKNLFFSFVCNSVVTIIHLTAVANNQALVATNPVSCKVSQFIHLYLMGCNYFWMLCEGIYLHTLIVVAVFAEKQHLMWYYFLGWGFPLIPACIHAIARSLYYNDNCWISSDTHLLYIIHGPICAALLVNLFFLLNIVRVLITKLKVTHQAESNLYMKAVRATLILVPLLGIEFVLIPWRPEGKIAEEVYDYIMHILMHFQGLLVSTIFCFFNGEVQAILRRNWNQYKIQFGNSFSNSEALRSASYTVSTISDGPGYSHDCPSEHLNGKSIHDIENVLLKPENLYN
T1 sequence (O60894 27-148): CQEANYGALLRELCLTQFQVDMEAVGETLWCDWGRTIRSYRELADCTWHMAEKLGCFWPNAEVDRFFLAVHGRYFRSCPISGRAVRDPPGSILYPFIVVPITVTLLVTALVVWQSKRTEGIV

The IC50 is the concentration at which inhibition is half-maximal. As for `O=C(NC1Cc2ccc3[nH]ncc3c2CN(CCc2ccncc2)C1=O)N1CCC(N2Cc3ccccc3NC2=O)CC1` (centres unmarked), the half-inhibitory concentration (IC50) on CGRP receptor [1] and at CGRP receptor [2] was 0.01 to 10 nM throughout.
